Reference: patent US11098040B2, “Compounds and methods of use” (Ferro Therapeutics, Inc., priority 2018, dated 2021)

tested on: not listed separately; experiment: Whole blood stability, mouse; format: in vitro ADME; conditions: 0 min
Description: (§1) The results of the assay on stability in blood and IC50 values for pancreatic cancer cell line KP4 are given below in Table 24.

Compound	Whole Blood Stability % Remaining at 37° C. Mouse
CC(C)(C)OC(=O)c1ccc([C@H]2c3[nH]c4ccccc4c3C[C@H](CO)N2C(=O)CCl)cc1 [Example 63a]	100.0%
(1S,3R)-RSL3-alkyne [Compound BX, reference compound]	100.0%

Second part, the compound after the results:

Whole Blood Stability % Remaining at 37° C. Mouse	Compound
100.0%	CC(C)(C)OC(=O)c1ccc([C@@H]2c3[nH]c4ccccc4c3C[C@H](CO)N2C(=O)CCl)cc1 [Example 64a]
100.0%	COC(=O)c1ccc([C@@H]2c3[nH]c4ccccc4c3C[C@H](C)N2C(=O)CCl)cc1 [Example 77a]
100.0%	COC(=O)c1ccc([C@H]2c3[nH]c4ccccc4c3C[C@H](C(=O)OC)N2C(=O)CCl)cc1 [K601 (RSL3), reference compound]

same assay, conditions: 30 min

Compound	Whole Blood Stability % Remaining at 37° C. Mouse
CC(C)(C)OC(=O)c1ccc([C@H]2c3[nH]c4ccccc4c3C[C@H](CO)N2C(=O)CCl)cc1 [Example 63a]	4.5%
(1S,3R)-RSL3-alkyne [Compound BX, reference compound]	0.0%

Results, then the compound that gave them:

Whole Blood Stability % Remaining at 37° C. Mouse	Compound
8.3%	CC(C)(C)OC(=O)c1ccc([C@@H]2c3[nH]c4ccccc4c3C[C@H](CO)N2C(=O)CCl)cc1 [Example 64a]
0.0%	COC(=O)c1ccc([C@@H]2c3[nH]c4ccccc4c3C[C@H](C)N2C(=O)CCl)cc1 [Example 77a]
0.2%	COC(=O)c1ccc([C@H]2c3[nH]c4ccccc4c3C[C@H](C(=O)OC)N2C(=O)CCl)cc1 [K601 (RSL3), reference compound]

same assay, conditions: 60 min

Compound	Whole Blood Stability % Remaining at 37° C. Mouse
CC(C)(C)OC(=O)c1ccc([C@H]2c3[nH]c4ccccc4c3C[C@H](CO)N2C(=O)CCl)cc1 [Example 63a]	0.0%
(1S,3R)-RSL3-alkyne [Compound BX, reference compound]	0.0%

Next, values leading:

Whole Blood Stability % Remaining at 37° C. Mouse	Compound
3.2%	CC(C)(C)OC(=O)c1ccc([C@@H]2c3[nH]c4ccccc4c3C[C@H](CO)N2C(=O)CCl)cc1 [Example 64a]
0.0%	COC(=O)c1ccc([C@@H]2c3[nH]c4ccccc4c3C[C@H](C)N2C(=O)CCl)cc1 [Example 77a]
0.2%	COC(=O)c1ccc([C@H]2c3[nH]c4ccccc4c3C[C@H](C(=O)OC)N2C(=O)CCl)cc1 [K601 (RSL3), reference compound]

tested on: not listed separately; experiment: Whole blood stability, human; format: in vitro ADME; conditions: 0 min
Description: as §1

Compound	Whole Blood Stability % Remaining at 37° C. Human
CC(C)(C)OC(=O)c1ccc([C@H]2c3[nH]c4ccccc4c3C[C@H](CO)N2C(=O)CCl)cc1 [Example 63a]	100.0%
(1S,3R)-RSL3-alkyne [Compound BX, reference compound]	100.0%

Continued, values first:

Whole Blood Stability % Remaining at 37° C. Human	Compound
100.0%	CC(C)(C)OC(=O)c1ccc([C@@H]2c3[nH]c4ccccc4c3C[C@H](CO)N2C(=O)CCl)cc1 [Example 64a]
100.0%	COC(=O)c1ccc([C@@H]2c3[nH]c4ccccc4c3C[C@H](C)N2C(=O)CCl)cc1 [Example 77a]
100.0%	COC(=O)c1ccc([C@H]2c3[nH]c4ccccc4c3C[C@H](C(=O)OC)N2C(=O)CCl)cc1 [K601 (RSL3), reference compound]

same assay, conditions: 30 min

Compound	Whole Blood Stability % Remaining at 37° C. Human
CC(C)(C)OC(=O)c1ccc([C@H]2c3[nH]c4ccccc4c3C[C@H](CO)N2C(=O)CCl)cc1 [Example 63a]	35.0%
(1S,3R)-RSL3-alkyne [Compound BX, reference compound]	70.1%

Other lines, results leading:

Whole Blood Stability % Remaining at 37° C. Human	Compound
38.0%	CC(C)(C)OC(=O)c1ccc([C@@H]2c3[nH]c4ccccc4c3C[C@H](CO)N2C(=O)CCl)cc1 [Example 64a]
47.5%	COC(=O)c1ccc([C@@H]2c3[nH]c4ccccc4c3C[C@H](C)N2C(=O)CCl)cc1 [Example 77a]
60.8%	COC(=O)c1ccc([C@H]2c3[nH]c4ccccc4c3C[C@H](C(=O)OC)N2C(=O)CCl)cc1 [K601 (RSL3), reference compound]

same assay, conditions: 60 min

Compound	Whole Blood Stability % Remaining at 37° C. Human
CC(C)(C)OC(=O)c1ccc([C@H]2c3[nH]c4ccccc4c3C[C@H](CO)N2C(=O)CCl)cc1 [Example 63a]	13.2%
(1S,3R)-RSL3-alkyne [Compound BX, reference compound]	51.1%

More lines, now with the values ahead:

Whole Blood Stability % Remaining at 37° C. Human	Compound
15.5%	CC(C)(C)OC(=O)c1ccc([C@@H]2c3[nH]c4ccccc4c3C[C@H](CO)N2C(=O)CCl)cc1 [Example 64a]
14.8%	COC(=O)c1ccc([C@@H]2c3[nH]c4ccccc4c3C[C@H](C)N2C(=O)CCl)cc1 [Example 77a]
42.5%	COC(=O)c1ccc([C@H]2c3[nH]c4ccccc4c3C[C@H](C(=O)OC)N2C(=O)CCl)cc1 [K601 (RSL3), reference compound]

tested on: KP4; experiment: Cell viability assay (CellTiter Glo), pancreatic ductal adenocarcinoma KP4; format: cell-based, human; conditions: Homo sapiens, KP-4, 96 h, pancreatic cancer cell line KP4, 96 hours, CellTiter Glo; read-out: IC50 μM KP4
Summary of the method: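 Luminescent ATP readout (CellTiter Glo) after 96 h compound exposure, normalized to DMSO-treated cells as maximum. Compounds ran in duplicate, nine 3-fold steps from 30 μM down to 4.6 nM, final DMSO ≤0.25%; KP4 plated overnight at 1,000–10,000 cells/well. Outputs: IC50, relative IC50 or % top inhibition.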

Compound	IC50
C[C@H]1Cc2c([nH]c3ccccc23)[C@H](c2ccc(N3CCN(C)CC3)cc2)N1C(=O)OCl [Compound 104]	0.01 to 0.1 µM
CC(C)(C)OC(=O)c1ccc([C@H]2c3[nH]c4ccccc4c3C[C@H](CO)N2C(=O)CCl)cc1 [Example 63a]	> 1 µM

Continued, values first:

IC50	Compound
> 1 µM	CC(C)(C)OC(=O)c1ccc([C@@H]2c3[nH]c4ccccc4c3C[C@H](CO)N2C(=O)CCl)cc1 [Example 64a]
0.5 to 1 µM	COC(=O)c1ccc([C@@H]2c3[nH]c4ccccc4c3C[C@H](C)N2C(=O)CCl)cc1 [Example 77a]
< 0.01 µM	COC(=O)c1ccc([C@H]2c3[nH]c4ccccc4c3C[C@H](C(=O)OC)N2C(=O)CCl)cc1 [K601 (RSL3), reference compound]

same assay, conditions: pancreatic cancer cell line KP4, 96 hours, CellTiter Glo; read-out: IC50 μM KP4

Compound	IC50
(1S,3R)-RSL3-alkyne [Compound BX, reference compound]	< 0.01 µM

tested on: 786-O; experiment: Cell proliferation (Alamar Blue) assay, 786-O renal cell carcinoma, with/without ferrostatin; format: cell-based; conditions: Homo sapiens, 786-0, Cell Line 786-O; read-out: IC50
Method: Cell viability assay was performed to assess the potency of the compounds in human cancer cell lines 786-O (renal cell carcinoma) and SJSA-1 (osteosarcoma). Additional cell lines, such as those described above in Example 4 as well as various others, e.g., pancreatic cancer cell lines (Panc 02.13, BxPC-3, Panc 12, Panc 02.03, Panc 6.03, PSN-1, HPAC, and Capan-1) and prostate cancer cell lines (PC-3, DU145, 22Rv1, NCI-H660, BPH1, LNCaP, BM-1604, and MDA PCa 2b), were tested for select compounds as shown in Table 25.
Cells (SJSA-1, 786-O and A431) were seeded (5000 cells/100 μL/well) in 96-well tissue culture plate and incubated at 37° C./5% CO2 for 16-24 hours. The cells were then treated with compounds (25 μL of 5×). The compound concentrations were 10-0.0005 μM prepared in 3-fold serial dilutions with final DMSO concentration of 1%. The plates were then incubated for 24 h at 37° C./5% CO2 in a moist environment. Then Alamar Blue™ reagent (final concentration 1×-12.5 μL) was added to each well and incubated for 1.5 hours at 37° C./5% CO2. The plates were read on fluorescence reader at 540 nm excitation and 590 nm emission wavelengths. The IC50 values were subsequently determined using a sigmoidal dose-response curve (variable slope) in GraphPad Prism® 5 software.
Studies have shown that lipophilic antioxidants, such as ferrostatin, can rescue cells from GPX4 inhibition-induced ferroptosis. For instance, mesenchymal state GPX4-knockout cells can survive in the presence of ferrostatin, however, when the supply of ferrostatin is terminated, these cells undergo ferroptosis (see, e.g., Viswanathan et al., Nature 547:453-7, 2017). […] Accordingly, the ability of a molecule to induce ferroptotic cancer cell death, and that such ability is admonished by the addition of ferrostatin, is clear indication that the molecule is an GPX4 inhibitor.

Compound	IC50
C[C@H]1Cc2c([nH]c3ccccc23)[C@H](c2ccc(N3CCN(C)CC3)cc2)N1C(=O)OCl [Compound 104]	68 nM
